# Test results taken from US20250042942A1, “PEPTIDE HAVING PHYSIOLOGICAL ACTIVITIES AND USE THEREOF” (CAREGEN CO., LTD., priority 2021, published 2025).
# Peptide text beside a SMILES is read from it.
# Tested on: mouse RAW264.7 cell line
# Assay: Cytotoxicity, CCK-8 assay
# Format: cell-based
# Details: peptide 10, 30, 30, 100, and 150 μg/ml, 3 days, CCK-8, FIG. 10B
# Protocol: The effect of the peptide of the present invention on cell proliferation was confirmed using CCK-8 assay. CCK-8 reagent is reduced by cellular dehydrogenase to produce a colored product, and the proliferation of cells may be confirmed through a difference in absorbance using this.
# After removing the medium, CCK-8 solution (Dojindo, CCK-8 kit) was diluted 10 times in the culture medium and treated at 100 μl each. During incubation at 37° C., absorbance at a wavelength of 450 nm was measured using a microplate reader at 30-minute intervals.
smiles,measurement,value
"CC[C@H](C)[C@H](NC(=O)[C@H](C)NC(=O)[C@@H](N)CC(N)=O)C(=O)N[C@@H](CO)C(=O)N[C@H](C(=O)N[C@@H](CC(C)C)C(=O)N[C@@H](Cc1ccc(O)cc1)C(=O)N[C@@H](Cc1ccccc1)C(=O)N[C@@H](CC(=O)O)C(=O)N[C@@H](CC(=O)O)C(=O)N[C@@H](CO)C(=O)O)C(C)C [SEQ ID NO: 1, NAISVLYFDDS] (H-NAISVLYFDDS-OH)",toxicity to mouse macrophages,not toxic
